Measurements taken from PubChem BioAssay AID1963449 (Molecular Pharmacology Branch, DTP, NCI, 2024).
“And” between values parts separate entries of the source, which are not always exact repeats. Equal values may be shown once.

System: 596521-263-R-J1-PDC complex spheroid growth
Test: Anticancer human tumor 596521-263-R-J1-PDC patient-derived soft tissue sarcoma cell line growth inhibition [Asc]
Conditions: for viability, T/C: stronger effect = lower value
Method: Multicellular complex tumor spheroid response to apoptosis pathway targeting inhibitors Alrizomadlin, Pelcitoclax, and Dasminapant in combination with a variety of drugs and investigational agents in selected tumor cell lines
The MDM2 inhibitor alrizomadlin, the Bcl-2/Bcl-xL inhibitor pelcitoclax, and the IAPs inhibitor dasminapant were evaluated both individually and in combination with standard of care and investigational anticancer small molecules within a complex spheroid model of solid tumors. . Complex spheroids include a stromal component modeled by human endothelial cells (HUVEC) and fibroblasts modeled by human mesenchymal stem cells (MSCs). The concentration ranges selected for each drug and investigational agent were based upon clinically achievable concentrations if the clinical Cmax of the agent was known.
Compounds. The drugs and investigational agents: alrizomadlin (APG-115; NSC831270), pelcitoclax (APG-1252; NSC835773), dasminapant (APG-1387;NSC834197), TAK-243 (NSC785004), copanlisib (NSC809693), olaparib (NSC753686), talazoparib (NSC767125), cobimetinib (NSC 768068), eltanexor (KPT-8602, NSC 794443), abemaciclib (NSC 768073), sotorasib (NSC818433), adagrasib (NSC 831453), MRTX-1133 (NSC 836407), Iadademestat (ORY1001, NSC 806812), and RMC-4630 (NSC839698), were obtained from the NCI Developmental Therapeutics Program Chemical Repository. The FDA-approved anticancer drug set is available from the Developmental Therapeutics Program at https://dtp.cancer.gov/organization/dscb/obtaining/available plates.htm. […] The stock solutions were prepared in dimethyl sulfoxide (DMSO, Sigma-Aldrich, St. Louis, MO, cat. D2650) at 800-fold the tested concentration and stored at -70 degrees C prior to their use. All drugs and investigational agents were tested over a range starting from a high concentration at or near the clinical Cmax and decreasing in half-log increments. If the clinical Cmax for an agent had not been determined, the highest concentration tested was 10 microM.
The patient-derived cancer (PDC) cell lines include five colon adenocarcinomas: 186277-243-T-J2-PDC, 616215-338-R-J1-PDC, 439559-082-T-J2-PDC, 463943-066-T-J2-PDC, and 519858-162-T-J1-PDC; three pancreatic carcinomas: 323965-272-R-J2-PDC, 521955-158-R6-J3-PDC, and 521955-158-R2-J5-PDC; two uterine sarcomas: 327498-152-R-J2-PDC and 993429-296-R-J1-PDC; two rhabdomyosarcomas: 755483-174-R-J1-PDC and 772245-204-R-J1-PDC; two soft tissue sarcomas: 126254-015-R-J1-PDC and 494315-158-R-J1-PDC; two malignant fibrous histiocytomas: 317291-083-R-J1-PDC and 596521-263-R-J1-PDC; two breast carcinomas: 171881-019-R-J1-PDC and 885512-296-R-J2-PDC; and one ovarian carcinoma: 6556581-035-R-J-PDC were obtained from the NCI PDMR, (https://pdmr.cancer.gov). The established cell lines HSSY-2 synovial sarcoma (RRID:CVCL 8719), SYO-1 synovial sarcoma (RRID:CVCL_7146), MPNST malignant peripheral neural sheath tumor were obtained from the Sloan Kettering Institute. The following established cell lines were purchased from the American Type Culture Collection (ATCC, Manassas, VA), Sor the received from the NCI repository:, PANC-1 pancreatic carcinoma (CRL-1469, RRID:CVCL_0480), OVCAR-5 ovarian carcinoma (RRID:CVCL_1628), OVCAR-8 ovarian carcinoma (RRID:CVCL_1629), , MCF-7 breast carcinoma (CRL-12584, RRID:CVCL_0031), MDA-MB-231 breast carcinoma (CRL-12532, RRID:CVCL_0062), NCI-H1876 small cell lung carcinoma (CRL-5902, RRID:CVCL_1503), NCI-H510A small cell lung carcinoma (HTB-184, RRID:CVCL_1565), NCI-H1417 (CRL-5869, RRID:CVCL_1469), and NCI-H196 small cell lung carcinoma (CRL-5823, RRID:CVCL_1509). Dr. Peter Houghton (Greehey Children's Cancer Research Institute, University of Texas Health Science Center, San Antonio, TX) provided Rh-18 rhabdomyosarcoma (RRID:CVCL_1659). Pooled donor human umbilical vein endothelial cells (HUVEC, Lonza, cat. CC-2519) and human mesenchymal stem cells (hMSC, Lonza, cat. PT-2501) were purchased from Lonza (Walkersville, MD).
Cell Culture. […]
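Further: spheroids exposed to compounds for 7 days.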

Question: Which viability, T/C (compound 0.00316 µM) does the source give for `O=C(c1ccc(F)c(F)c1Nc1ccc(I)cc1F)N1CC(O)([C@@H]2CCCCN2)C1` here?
Answer: 107% and 99.7% and 89.7%

Question: And the viability, T/C (compound 0.01 µM)?
Answer: 95.2% and 94.7% and 92%

Question: What about the viability, T/C (compound 0.0316 µM) of the same compound?
Answer: 98.4% and 88.8% and 92.9%

Question: And the viability, T/C (compound 0.1 µM)?
Answer: 75.9% and 77.3% and 84.2%

Question: And the viability, T/C (compound 0.316 µM)?
Answer: 50.1% and 56% and 54.9%

Question: What about the viability, T/C (compound 1 µM) of the same compound?
Answer: 34.9% and 49.8% and 34%

Question: What about the IC50 (curve of compound) of the same compound?
Answer: 0.314 µM and 0.867 µM and 0.412 µM

Question: With `C=C(F)C(=O)N1CCN(c2nc(OCC3CCCN3C)nc3c2CCN(c2cccc4cccc(Cl)c24)C3)CC1CC#N` (centres undefined) + CCN1C(C(=O)NC23CCC(C(=O)O)(CC2)CC3)C(c2cccc(Cl)c2F)C2(C(=O)Nc3cc(Cl)ccc32)C12CCCCC2 as the compound, how does the IC50 (curve of first compound, second compound 0.00949 µM) read?
Answer: 5.24 µM

Question: What about the IC50 (curve of first compound, second compound 0.03 µM) of the same compound?
Answer: 5.11 µM

Question: And the IC50 (curve of first compound, second compound 0.0949 µM)?
Answer: 5.18 µM

Question: And the IC50 (curve of first compound, second compound 0.3 µM)?
Answer: 5.11 µM

Question: What about the IC50 (curve of first compound, second compound 0.949 µM) of the same compound?
Answer: 4.73 µM

Question: And the IC50 (curve of first compound, second compound 3 µM)?
Answer: 4.53 µM

Question: What about the viability, T/C (second compound 0.00949 µM, first compound 0.0316 µM) of the same compound?
Answer: 106%

Question: And the viability, T/C (second compound 0.00949 µM, first compound 0.1 µM)?
Answer: 102%

Question: And the viability, T/C (second compound 0.00949 µM, first compound 0.316 µM)?
Answer: 91.2%

Question: And the viability, T/C (second compound 0.00949 µM, first compound 1 µM)?
Answer: 104%

Question: What about the viability, T/C (second compound 0.00949 µM, first compound 3.16 µM) of the same compound?
Answer: 88.7%

Question: What about the viability, T/C (second compound 0.00949 µM, first compound 10 µM) of the same compound?
Answer: 0.73%

Question: What about the viability, T/C (second compound 0.03 µM, first compound 0.0316 µM) of the same compound?
Answer: 101%

Question: And the viability, T/C (second compound 0.03 µM, first compound 0.1 µM)?
Answer: 90.4%

Question: And the viability, T/C (second compound 0.03 µM, first compound 0.316 µM)?
Answer: 97.5%

Question: What about the viability, T/C (second compound 0.03 µM, first compound 1 µM) of the same compound?
Answer: 97.3%

Question: And the viability, T/C (second compound 0.03 µM, first compound 3.16 µM)?
Answer: 85.3%

Question: And the viability, T/C (second compound 0.03 µM, first compound 10 µM)?
Answer: 0.62%

Question: And the viability, T/C (second compound 0.0949 µM, first compound 0.0316 µM)?
Answer: 94.3%

Question: What about the viability, T/C (second compound 0.0949 µM, first compound 0.1 µM) of the same compound?
Answer: 96.4%

Question: What about the viability, T/C (second compound 0.0949 µM, first compound 0.316 µM) of the same compound?
Answer: 106%

Question: And the viability, T/C (second compound 0.0949 µM, first compound 1 µM)?
Answer: 101%

Question: What about the viability, T/C (second compound 0.0949 µM, first compound 3.16 µM) of the same compound?
Answer: 86.1%

Question: And the viability, T/C (second compound 0.0949 µM, first compound 10 µM)?
Answer: 1.83%

Question: What about the viability, T/C (second compound 0.3 µM, first compound 0.0316 µM) of the same compound?
Answer: 98.7%

Question: What about the viability, T/C (second compound 0.3 µM, first compound 0.1 µM) of the same compound?
Answer: 107%

Question: What about the viability, T/C (second compound 0.3 µM, first compound 0.316 µM) of the same compound?
Answer: 101%

Question: And the viability, T/C (second compound 0.3 µM, first compound 1 µM)?
Answer: 100%

Question: And the viability, T/C (second compound 0.3 µM, first compound 3.16 µM)?
Answer: 83.6%

Question: And the viability, T/C (second compound 0.3 µM, first compound 10 µM)?
Answer: 2.96%

Question: What about the viability, T/C (second compound 0.949 µM, first compound 0.0316 µM) of the same compound?
Answer: 109%

Question: What about the viability, T/C (second compound 0.949 µM, first compound 0.1 µM) of the same compound?
Answer: 97.9%

Question: And the viability, T/C (second compound 0.949 µM, first compound 0.316 µM)?
Answer: 108%

Question: What about the viability, T/C (second compound 0.949 µM, first compound 1 µM) of the same compound?
Answer: 105%

Question: And the viability, T/C (second compound 0.949 µM, first compound 3.16 µM)?
Answer: 75.3%

Question: What about the viability, T/C (second compound 0.949 µM, first compound 10 µM) of the same compound?
Answer: 2.73%

Question: What about the viability, T/C (second compound 3 µM, first compound 0.0316 µM) of the same compound?
Answer: 97%

Question: And the viability, T/C (second compound 3 µM, first compound 0.1 µM)?
Answer: 98.6%

Question: And the viability, T/C (second compound 3 µM, first compound 0.316 µM)?
Answer: 102%

Question: What about the viability, T/C (second compound 3 µM, first compound 1 µM) of the same compound?
Answer: 80.2%

Question: And the viability, T/C (second compound 3 µM, first compound 3.16 µM)?
Answer: 75.5%

Question: And the viability, T/C (second compound 3 µM, first compound 10 µM)?
Answer: 2.66%
